What is called IC50 is the concentration that gives 50% inhibition. As a reminder, the Ki is a dissociation constant, usually derived from enzyme kinetics or from competition with a known ligand.

The source of these data is ChEMBL document CHEMBL1909046, “DrugMatrix in vitro pharmacology data”.

The nature of assay [1]: DRUGMATRIX: Atrial Natriuretic Factor (ANF) radioligand binding (ligand: [125I] ANF (rat)). Type of assay: cell membranes, Cavia porcellus, Dunkin-Hartley, Adrenal gland, Membrane. Conditions: Not Active = under 50% inhibition at 10 µM.
A short description of assay [2]: DRUGMATRIX: Serotonin (5-Hydroxytryptamine) 5-HT3 radioligand binding (ligand: [3H] GR-65630). The following applies: hek293, Not Active = under 50% inhibition at 10 µM. Type of assay: cell membranes, Membrane.
The target in assay [3] is 5-hydroxytryptamine receptor 4 (Cavia porcellus, UniProt O70528). It is filed as cell membranes, Dunkin-Hartley, Striatum, Membrane. Further: in other assays of this panel Not Active means under 50% inhibition at 10 µM.
Chain of 5-hydroxytryptamine receptor 4 (O70528 whole entry): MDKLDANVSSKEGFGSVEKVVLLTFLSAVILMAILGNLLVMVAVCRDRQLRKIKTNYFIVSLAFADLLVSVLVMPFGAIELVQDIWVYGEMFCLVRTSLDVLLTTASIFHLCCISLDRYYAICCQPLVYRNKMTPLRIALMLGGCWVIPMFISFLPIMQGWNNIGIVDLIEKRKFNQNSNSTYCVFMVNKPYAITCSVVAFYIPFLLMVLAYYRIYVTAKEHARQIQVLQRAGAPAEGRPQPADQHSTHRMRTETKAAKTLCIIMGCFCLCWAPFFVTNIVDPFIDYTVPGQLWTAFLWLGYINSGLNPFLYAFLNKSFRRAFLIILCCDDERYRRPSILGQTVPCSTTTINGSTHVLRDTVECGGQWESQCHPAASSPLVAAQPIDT
Another assay has as its target T1, Thromboxane-A synthase (Homo sapiens, UniProt P24557).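 Further: enzyme inhibition assay with PGH2 supplied as substrate; in other assays of this panel Not Active means under 50% inhibition at 10 µM.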
T1 sequence (P24557 whole entry): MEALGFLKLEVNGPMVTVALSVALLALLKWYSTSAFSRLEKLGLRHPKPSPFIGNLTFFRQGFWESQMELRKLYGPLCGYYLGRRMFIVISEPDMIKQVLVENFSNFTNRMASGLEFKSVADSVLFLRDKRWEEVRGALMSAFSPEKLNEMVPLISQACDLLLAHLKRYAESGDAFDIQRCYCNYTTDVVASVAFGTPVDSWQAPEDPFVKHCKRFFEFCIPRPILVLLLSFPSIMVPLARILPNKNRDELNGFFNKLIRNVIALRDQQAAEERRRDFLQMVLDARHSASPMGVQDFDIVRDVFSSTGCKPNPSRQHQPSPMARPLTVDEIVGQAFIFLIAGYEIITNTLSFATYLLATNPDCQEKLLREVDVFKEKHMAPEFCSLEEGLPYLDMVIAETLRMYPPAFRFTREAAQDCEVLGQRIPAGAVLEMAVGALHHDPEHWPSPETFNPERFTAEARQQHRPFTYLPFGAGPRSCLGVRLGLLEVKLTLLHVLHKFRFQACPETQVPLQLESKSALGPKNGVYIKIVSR
Nature of the assay: biochemical. Type of assay: tissue-based, Platelet. Conditions: platelet.

Another assay addresses T2, D(4) dopamine receptor (Homo sapiens, UniProt P21917).
T2 sequence (P21917 whole entry): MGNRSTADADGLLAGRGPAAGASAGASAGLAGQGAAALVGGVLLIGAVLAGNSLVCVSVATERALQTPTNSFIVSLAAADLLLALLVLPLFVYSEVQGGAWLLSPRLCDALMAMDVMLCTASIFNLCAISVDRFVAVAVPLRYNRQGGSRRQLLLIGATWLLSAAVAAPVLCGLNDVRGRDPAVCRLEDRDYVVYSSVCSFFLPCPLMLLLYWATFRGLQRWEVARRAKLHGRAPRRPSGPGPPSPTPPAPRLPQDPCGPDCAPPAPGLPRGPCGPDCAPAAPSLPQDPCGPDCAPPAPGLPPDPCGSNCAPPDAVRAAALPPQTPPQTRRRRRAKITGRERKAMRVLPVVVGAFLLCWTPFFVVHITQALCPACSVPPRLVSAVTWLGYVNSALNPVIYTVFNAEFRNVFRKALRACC
Briefly: DRUGMATRIX: Dopamine D4.2 radioligand binding (ligand: [3H] Spiperone). Type of assay: cell membranes, CHO-K1, Membrane. Conditions: Not Active = under 50% inhibition at 10 µM.

Assay [4] has as its target T3, Cysteinyl leukotriene receptor 1 (Homo sapiens, UniProt Q9Y271). Further: in other assays of this panel Not Active means under 50% inhibition at 10 µM.
T3 sequence (Q9Y271 whole entry): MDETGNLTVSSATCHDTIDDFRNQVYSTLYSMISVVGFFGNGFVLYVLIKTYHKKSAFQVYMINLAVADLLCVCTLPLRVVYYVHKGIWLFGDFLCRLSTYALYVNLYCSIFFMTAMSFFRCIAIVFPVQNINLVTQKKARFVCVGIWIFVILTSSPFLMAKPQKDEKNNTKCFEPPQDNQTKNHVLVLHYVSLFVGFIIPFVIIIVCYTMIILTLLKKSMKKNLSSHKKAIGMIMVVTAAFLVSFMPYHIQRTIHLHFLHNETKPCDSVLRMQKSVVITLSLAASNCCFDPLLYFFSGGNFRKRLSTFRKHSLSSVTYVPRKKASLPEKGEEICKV
It is filed as cell membranes, CHO-K1, Membrane. Conditions: cho-k1.

`C#C[C@]1(O)CC[C@H]2[C@@H]3[C@H](C)CC4=C(CCC(=O)C4)[C@H]3CC[C@@]21C` [TIBOLONE]: the 50% inhibitory concentration (IC50) entry (in assay [1]; in assay [2]; in assay [3]; at Thromboxane-A synthase; at D(4) dopamine receptor (cho-k1); in assay [4]) was “Not Active” throughout. Further, the Ki entry in assay [1] and in assay [2] was “Not Active” throughout.

Take `C[C@]12CCC(=O)C[C@@H]1CC[C@@H]1[C@@H]2CC[C@]2(C)[C@@H](O)CC[C@@H]12` [STANOLONE]: the IC50 entry (in assay [1]; in assay [2]; in assay [3]; against Thromboxane-A synthase; on D(4) dopamine receptor (cho-k1); in assay [4]) was “Not Active” in each case. Moreover, the inhibitory constant (Ki) result in assay [1] and in assay [2] was “Not Active” in each case.

Regarding `CC(C)(C)NC[C@H](O)COc1cccc2c1CCCC2=O` [LEVOBUNOLOL], the IC50 entry (in assay [1]; in assay [2]; in assay [3]; against Thromboxane-A synthase; at D(4) dopamine receptor (cho-k1); in assay [4]) was “Not Active” each time. The Ki entry in assay [1] and in assay [2] was “Not Active” in each case.

`CCN1CCCC1CNC(=O)c1cc(S(N)(=O)=O)ccc1OC` (configuration not stated) [SULPIRIDE]: the half-inhibitory concentration (IC50) result (in assay [1]; in assay [2]; in assay [3]; on Thromboxane-A synthase; on D(4) dopamine receptor (cho-k1); in assay [4]) was “Not Active” each time. For the same compound, the Ki result in assay [1] and in assay [2] was “Not Active” in each case.

Regarding `CCN(CC)C(=S)SSC(=S)N(CC)CC`, the IC50 entry in assay [1] was “Not Active”; in assay [2] it was “Not Active”; in assay [3], “Not Active”; at Thromboxane-A synthase, “Not Active”; at D(4) dopamine receptor (read-out: IC50), 3.15 µM; in assay [4], “Not Active”. Besides, the inhibition constant (Ki) entry in assay [1] was “Not Active”; in assay [2], “Not Active”; at D(4) dopamine receptor (read-out: Ki), 1.1 µM.

Regarding `OC[C@@H](O)[C@@H](O)[C@H](O)[C@H](O)CO` [MANNITOL], the IC50 result (in assay [1]; in assay [2]; in assay [3]; against Thromboxane-A synthase; at D(4) dopamine receptor (cho-k1); in assay [4]) was “Not Active” each time. Besides, the Ki result in assay [1] and in assay [2] was “Not Active” each time.

As for `C[N+]1(C)[C@@H]2C[C@@H](OC(=O)[C@H](CO)c3ccccc3)C[C@H]1[C@@H]1O[C@@H]12.[Br-]` [METHSCOPOLAMINE BROMIDE], the IC50 result (in assay [1]; in assay [2]; in assay [3]; against Thromboxane-A synthase; on D(4) dopamine receptor (cho-k1); in assay [4]) was “Not Active” in each case. Besides, the Ki result in assay [1] and in assay [2] was “Not Active” throughout.

For the compound `CCN(CC)CCNC(=O)c1cc(Cl)c(N)cc1OC` [METOCLOPRAMIDE], the IC50 result in assay [1] was “Not Active”; in assay [2] (read-out: IC50), 4.01 µM; in assay [3], “Not Active”; against Thromboxane-A synthase, “Not Active”; at D(4) dopamine receptor (cho-k1), “Not Active”; in assay [4] it was “Not Active”. Besides, the inhibition constant Ki entry was “Not Active” in assay [1] and 0.902 µM in assay [2] (read-out: Ki).

On to `CNCCCC12CCC(c3ccccc31)c1ccccc12` [MAPROTILINE], for which the IC50 entry (in assay [3]; against Thromboxane-A synthase; at D(4) dopamine receptor (cho-k1); in assay [4]) was “Not Active” each time.

For the compound `CN(C)CCC=C1c2ccccc2COc2ccccc21` [DOXEPIN], the concentration for half-maximal inhibition (IC50) entry (in assay [3]; against Thromboxane-A synthase; on D(4) dopamine receptor (cho-k1); in assay [4]) was “Not Active” each time.

For `Cc1cc2c(s1)Nc1ccccc1N=C2N1CCN(C)CC1` [OLANZAPINE], the half-maximal inhibitory concentration (IC50) entry (in assay [3]; on Thromboxane-A synthase; on D(4) dopamine receptor (cho-k1); in assay [4]) was “Not Active” in each case.
